Here are results for seven compounds from paper PMC8765781, “A platform of assays for the discovery of anti-Zika small-molecules with activity in a 3D-bioprinted outer-blood-retina model” (PLoS ONE, 2022).

The subject of data set [1] is wild-type ZIKV (Ugandan MR766 strain) in Vero cells. The data set is described as follows: ZIKV cytopathic effect (CPE) inhibition qHTS assay, CellTiter-Glo readout. The settings on record: for IC50: read-out: ZIKV-infection (CPE, ZIKV Antiviral Assays), IC50. It is filed as cell-based, Zika virus. On the technique in general: Protection from cytopathic effect is a common read-out in antiviral testing.

Data set [2] relates to ZIKV-mCherry in iPSC-derived RPE monoculture. The class given is cell-based, Zika virus.
The subject of data set [3] is ZIKV-mCherry in 3D-oBRB tissue. It is filed as cell-based, Zika virus.
Data set [4] addresses Tyrosine-protein phosphatase non-receptor type 1. The settings on record: cited from earlier work.
The test system of data set [5] is ZIKV-mCherry (Cambodian strain FSS13025). Kind of data set: microbe, parasite or virus in culture. It is filed as cell-based, Zika virus.
For data set [6], the system named is ZIKV-RLuc (Cambodian strain FSS13025). Kind of data set: microbe, parasite or virus in culture. It is filed as cell-based, Zika virus. The settings on record: read-out: Rluc-ZIKV (ZIKV Antiviral Assays), IC50.
The nature of data set [7]: in vitro. The settings on record: human.
Data set [8] deals with caspase-3 activity induced by ZIKV in Vero cells. Kind of data set: cells. The following applies: read-out: Caspase 3 (ZIKV Antiviral Assays), IC50. It is filed as cell-based.
Data set [9] is described as follows: in vitro. The following applies: African green monkey.
Data set [10] relates to Solute carrier organic anion transporter family member 1B1. The settings on record: cited from earlier work.
Data set [11] relates to Transcription factor AP-1. The following applies: cited from earlier work.
In data set [12] the test system is mCherry-ZIKV in human neuronal progenitor cells. Kind of data set: microbe, parasite or virus in culture. The class given is cell-based, Zika virus.
In data set [13] the test system is DENV (Dengue virus type 2, strain New Guinea C).
Data set [14] deals with human neuronal progenitor cells (NPC).
[15] abbreviates: Zika virus, Vero, read-out: Log AC50 (M) (converted).

Where two headings read alike, the source gives them in different places.

For `O=C(Nc1ccc([N+](=O)[O-])cc1Cl)c1cc(Cl)ccc1O` [niclosamide], in [1], the “Identified as active in CPE assay validation set” value is recorded as “identified”. Besides, the “Effect on barrier function” value in data set [2] and in [3] was “did not recover the barrier function” in each case.
For `CC1(C)CC[C@]2(C(=O)O)CC[C@]3(C)C(=CC[C@@H]4[C@@]5(C)CC[C@H](O[C@@H]6O[C@H](C(=O)O)[C@@H](O)[C@H](O)[C@H]6O)C(C)(C)[C@@H]5CC[C@]43C)[C@@H]2C1` [NCGC00384528-01, Calenduloside E], the “-Log(IC50) M, Tyrosine-protein phosphatase non-receptor type 1” value in data set [4] is recorded as “Tyrosine-protein phosphatase non-receptor type 1 -Log(IC50) M~5.46~-Log(IC50) M~0.7284~Target”. In [5], the “CC-v2 (curve class of the dose response curve)” value is reported as -1.2. For the same compound, the “Efficacy (difference between neutral response and maximum compound response)” value in [5] is -57.341. Further, the “Max Resp (difference between neutral response and response at highest compound concentration)” value in data set [5] was -100.305. The AC50 (commonly the concentration giving half of the maximal activity seen) is 4.99e-06 M in data set [5] (Zika virus, Vero); 4.99e-06 M in data set [5] (setting [15]); 1.37e-05 M in data set [1] (Zika virus, Vero); 1.37e-05 M in [1] (setting [15]). The Efficacy in [1] is -27.436. In addition, the IC50 – broadly, the concentration that gives 50% inhibition – in data set [1] (Zika virus, Vero, 48 h) is 13.7 µM; in data set [6] (Zika virus, Vero, 48 h), 11 µM; in [8] (Zika virus, Vero, 48 h), 0.001 µM. Also, the CC50 in “in vitro [7]” was more than 30 µM. Also, the CC50 at 48 h in the data set “in vitro [9]” (Vero cells) is more than 50 µM.
Regarding `CC1OC(OC2C(OC(=O)[C@]34CCC(C)(C)C[C@H]3C3=CCC5[C@@]6(C)CC[C@H](OC7OC(C(=O)O)C(O)C(O)C7O)C(C)(C)C6CC[C@@]5(C)[C@]3(C)CC4O)OC(CO)C2O)C(O)C(O)C1OC1OCC(O)C(O)C1O` (stereo partly drawn) [NCGC00381102-01], the “CC-v2 (curve class of the dose response curve)” value in data set [5] is recorded as -1.4. Besides, the “Efficacy (difference between neutral response and maximum compound response)” value in [5] is given as -69.614. Further, in data set [5], the “Max Resp (difference between neutral response and response at highest compound concentration)” value is listed as -99.592. In addition, the “CC-v2 (curve class classification of the dose response curve)” value in data set [1] was -3. In addition, in [1], the Efficacy is on record as -33.279. In addition, the AC50 is 1.55e-05 M in [1] (Zika virus, Vero) and 1.55e-05 M in [1] (setting [15]). Moreover, the IC50 in data set [1] (Zika virus, Vero, 48 h) is 15.5 µM; in data set [6] (Zika virus, Vero, 48 h), 6.19 µM; in data set [8] (Zika virus, Vero, 48 h), more than 48 µM. In “in vitro [9]” (Vero cells), this compound showed a CC50 at 48 h of more than 50 µM. For the same compound, the “-Log(IC50) M, Solute carrier organic anion transporter family member 1B1” value in [10] is “Solute carrier organic anion transporter family member 1B1 -Log(IC50) M~5.40~-Log(IC50) M~0.8333~Target”.
As to `CC1(C)CC[C@]2(C(=O)O)CC[C@]3(C)C(=CCC4[C@@]5(C)CC[C@H](O[C@H]6O[C@H](C(=O)O)[C@@H](O)[C@H](O[C@@H]7O[C@H](CO)[C@H](O)[C@H](O)[C@H]7O)[C@H]6O)C(C)(C)C5CC[C@]43C)[C@@H]2C1` (stereo partly drawn) [NCGC00385211-01, Calenduloside G], the “CC-v2 (curve class of the dose response curve)” value in data set [5] is given as -1.3. Also, the “Efficacy (difference between neutral response and maximum compound response)” value in data set [5] is on record as -66.223. In data set [5], the “Max Resp (difference between neutral response and response at highest compound concentration)” value was -100.305. For the same compound, the AC50 was 3.19e-06 M in data set [5] (Zika virus, Vero); 3.19e-06 M in data set [5] (setting [15]); 1.23e-05 M in data set [1] (Zika virus, Vero); 1.23e-05 M in data set [1] (setting [15]). The same compound returned an Efficacy in [1] of -58.411. In addition, the concentration for half-maximal inhibition (IC50) came out at 12.3 µM in [1] (Zika virus, Vero, 48 h); 2.2 µM in data set [6] (Zika virus, Vero, 48 h); 1.39 µM in data set [8] (Zika virus, Vero, 48 h). Also, the “-Log(IC50) M, Transcription factor AP-1” value in [11] is “Transcription factor AP-1 -Log(IC50) M~4.74~-Log(IC50) M~0.8101~Target”. This compound also registered a CC50 at 48 h in “in vitro [9]” of more than 50 µM.
Consider `CC1=C[C@H]2O[C@@H]3[C@H](O)[C@@H](O)[C@](C)([C@@]2(CO)C[C@@H]1O)[C@]31CO1` [NCGC00381381-01, T-2 toxin tetraol], for which the CC50 with HepG2 cells (read-out: Cell toxicity counterscreen HepG2, CC50) was more than 30 µM; in the data set with Vero cells (read-out: Cell toxicity counterscreen Vero, CC50) it was more than 50 µM.
For the compound `CO[C@@H]1[C@H](N(C)C(=O)c2ccccc2)C[C@H]2O[C@]1(C)n1c3ccccc3c3c4c(c5c6ccccc6n2c5c31)C(=O)NC4` [midostaurin], in [2], the “Effect on barrier function” value is “exacerbated the barrier function loss”. Besides, in [3], the “Retention of barrier function (TEER)” value is “about 40%”.
In the case of “5-methylcytidine [NCGC00484060-01, reference compound]”, in [5], the “CC-v2 (curve class of the dose response curve)” value is on record as -1.2; the “Efficacy (difference between neutral response and maximum compound response)” value is listed as -45.337; the “Log AC50 (M)” value is reported as -5.0741 M; the “Max Resp (difference between neutral response and response at highest compound concentration)” value is given as -100.16. Also, in [5] (read-out: AC50), the AC50 is 8.43e-06 M. Also, in data set [1], the “CC-v2 (curve class classification of the dose response curve)” value is given as -1.2, the Efficacy is listed as -42.621, the “Log AC50 (M)” value is -4.8362 M and the “Max Resp” value is on record as -39.681. The IC50 in [1] was found to be 14.6 µM. Besides, in data set [1] (read-out: AC50), the concentration at half-maximal activity (AC50) is 1.46e-05 M. Further, in the data set with WNV (Kern515/WN02), the “SI value WHV (CC50/EC50)” value is 1.8, the “Selectivity Index WHV (CC50/EC50)” value worked out at 2 and the “WHV active Yes/No” value was “No”. Moreover, the CC50 in the data set with HepG2 cells was more than 30 µM. In the data set with YFV (YFV 17D), the “SI value YFV (CC50/EC50)” value turned out to be 3, the “Selectivity Index YFV (CC50/EC50)” value amounted to 3 and the “YFV active Yes/No” value was “Yes”. For the same compound, the 50% inhibitory concentration (IC50) in data set [6] is 18.5 µM. Moreover, in data set [12], the “CC-v2 (curve class)” value is recorded as -2.2, the Efficacy is recorded as -64.821, the “Log AC50 (M)” value is -4.4 M and the “Max Resp” value is on record as -51.196. In addition, the half-maximal activity concentration (AC50) in data set [12] (read-out: AC50) is 39.8 µM. Besides, the IC50 in data set [12] (read-out: NPC (ZIKV Antiviral Assays), IC50) came to 39.8 µM. Further, in the data set on ZIKV, the “SI value ZIKV (CC50/EC50)” value is 28, the “Selectivity Index ZIKV (CC50/EC50)” value came out at 28 and the “ZIKV active Yes/No” value was “Yes”. For the same compound, the “DENV active Yes/No” value in data set [13] is “No”. Moreover, the concentration for half-maximal inhibition (IC50) in [8] (ZIKV-infected Vero cells, 48 hr, unit inferred) was more than 48 µM. Besides, in data set [14], the CC50 came to 19.2 µM. In the data set with Vero cells, this compound registered a CC50 of more than 50 µM.
